Key:
[1] = test system: Mongolian gerbils; assay: Mongolian gerbil common carotid artery occlusion, hippocampus CA1 region histology (Examples 6-1 to 6-4); format: in vivo; details: oral, 8, 40, 80 or 240 mg; carotid arteries occluded for ten minutes; hematoxylin-eosin sections
Procedure: A candidate compound was dissolved in physiological saline solution to prepare a 100 mM solution with the pH adjusted to 3 to 4 with 1 N NaOH as necessary. This solution was stored. The solution was diluted with physiological saline at time of use to prepare 0.5 ml of a solution containing 8 mg (Example 6-1), 40 mg (Example 6-2), 80 mg (Example 6-3), or 240 mg (Example 6-4) of a candidate compound. The above solution was administered to Mongolian gerbils. In Examples 6-1 to 6-3, 0.5 ml of the above solution was orally administered every 24 hours. In Example 6-4 the solutions was administered once.
Two hours after the second administration in Examples 6-1 to 6-3, both Mongolian gerbil common carotid arteries were occluded for ten minutes. The gerbils were sacrificed five days later. Two hours after administration in Example 6-4, both Mongolian gerbil common carotid arteries were occluded for ten minutes, and the gerbils were sacrificed three days later. Hematoxylin-eosin stained cross-sections of the brain hippocampus CA1 region tissue were prepared, and the stained sections were expand. […]

[2] = test system: NAIP; assay: NAIP production by western blotting in retinoic acid treated H-SY5Y cells (Example 2); format: cell-based; details: low or high concentration of retinoic acid, 30 μl/ml of 10 mM candidate compound solution, one day, vs controls (lanes 1 and 3)
Procedure: • (1) 3 ml/well of DMEM-HG medium containing H-SY5Y cells (ATCC CRL 2266 strain obtained from American Type Culture Collection; 1×10^5 cells/ml), 10% fetal bovine serum (FBS), 100 units/ml penicillin, and 100 μg/ml streptomycin was aliquoted into each well of a 6 well plate, and incubated for two days at 37° C. Either 3 μl/well (lane 2) or 15 μl/well (lane 4) of all-trans retinoic acid (2 mM) was then added to each well. Wells were then incubated for tree days at 37° C. • (2) Next, 30 μl/ml of candidate compound solution (10 mM) was added to each well and incubated for one day at 37° C. After incubation, each well was washed with 0.25 M NaCl, then filled with 10% trichloroacetic acid (TCA) on ice, and kept on ice for ten minutes. Cells were collected with a scrap and centrifuged (14,000 rpm, ten minutes, 4° C.). To prepare the samples for electrophoresis, 100 μl of urea TX solution (9 M urea solution containing 2% Triton X-100 and 5% 2-mercaptoethanol), 25 μl of 10% lithium dodecyl sulfate (LDS) solution, and 2 μl of 2M Tris solution were added to the obtained pellets. The samples were stored at −80° C. • (3) The samples for electrophoresis obtained in (2) were homogenized and then 10 μl of each sample was loaded onto READYGELSJ (Bio Rad Laboratories) and electrophoresed at 120 V for 75 minutes to conduct SDS-PAGE. […]

[3] = test system: ALS model mice; assay: Therapeutic effect in ALS model mice (Cu/Zn-SOD gene transgenic mouse) (Example 7); format: in vivo
Procedure: The in vivo therapeutic effect of compound 1 was examined using an Amyotrophic Lateral Sclerosis (ALS) model animal.
A Cu/Zn-SOD gene transgenic mouse (Saishin Igaku, Vol. 57 (7), “new Amyotrophic Lateral Sclerosis (ALS) model animals”, July, 2002: p. 1622-1627: obtained from Dr. Masashi Aoki at Tohoku University, School of Medicine, Neurology) was used. The ALS model mice were divided into three groups (physiological saline administered group, compound 1 (8 mg/kg) administered group, compound 1 (40 mg/kg) administered group). Physiological saline, compound 1 (8 mg/kg), and compound 1 (40 mg/kg) were orally administered to each ALS mouse once a day from about 7 days before the predicted day of the symptom development (138-139 days after birth) until the day the mice died.

[4] = test system: HeLa cells; assay: Cell-death suppressing effect in HeLa cells with cell-death inducing agent, Alamar Blue viable cell count (Example 3); format: cell-based; details: final concentration of 10 μM of each compound at the time of incubation
Procedure: • (1) HeLa cells (ATCC CCL2 strain obtained from American Type Culture Collection; 1×10^6 cells/ml) were incubated for ten hours at 37° C. under 5% CO2 in DMEM-HG medium supplemented with 10% FBS, 100 units/ml penicillin, and 100 μg/ml streptomycin in a T75 flask. A 250 μl solution containing a candidate compound (10 μM-10 mM) was added to 25 ml of the above culture and incubated for an additional 1, 1.5, or 2 days at 37° C. under 5% CO2. Cells were recovered, washed with the above medium, and counted. The cells were resuspended in the above fresh medium so the medium contained 1×10^5 cells/ml. • (2) 150 μl of the suspension obtained in (1) was added into each well of a 96 well plate and the plate was incubated for four hours at 37° C. […] After ten hours, luminescence was measured with a luminescence detector to determine the viable cell count at excitation and detection wavelengths of 530 nm and 560 nm, respectively. Moreover, the viable cell count of the control, which was prepared in the same way except that a candidate compound solution was not added “Control”) or DMSO was added instead of a candidate compound “DMSO”), was also determined. […]

SMILES	suppression of cell deformation and deciduation in the CA1 region [1]	160 kDa bands, presumably derived from NAIP [2]	Days before symptom development (P < 0.01) ([3]; 8 mg/kg orally once a day) [days]	Days between symptom development and death (P < 0.01) ([3]; 8 mg/kg orally once a day) [days]	Days of survival (P < 0.01) ([3]; 8 mg/kg orally once a day) [days]	Days before symptom development (P < 0.01) ([3]; 40 mg/kg orally once a day) [days]	Days between symptom development and death (P < 0.01) ([3]; 40 mg/kg orally once a day) [days]	Days of survival (P < 0.01) ([3]; 40 mg/kg orally once a day) [days]	effect on onset and on period between development of symptoms and death ([3]; 40 mg/kg orally once a day)	Result (cell-death suppressing effect, tests of Example 3) [4]
Clc1ccc(N2CCN(Cc3c[nH]c4ncccc34)CC2)cc1 [Compound 1]	dose-dependent suppression of cell deformation and deciduation in the CA1 region	significantly strong 160 kDa bands	138.1 ± 1.9	23.6 ± 2.0	161.7 ± 3.3	145.2 ± 1.8	28.9 ± 1.6	174.6 ± 2.4	delaying the onset and prolonging the period between the development of symptoms and the death	–
Cc1c(C2CCN(CCc3ccccc3)CC2)noc1-c1ccc(Cl)cc1 [Compound 2, 5-(4-chlorophenyl)-4-methyl-3-(1-(2-phenylethyl)piperidin 4-yl) isoxazole]	–	–	–	–	–	–	–	–	–	+ or ±

From patent publication US20050261306A1, “Anti-neurodegenerative agents” (priority 2002, published 2005)
